# Assays:
# Test in all cases: minimal inhibitory concentration, two-fold agar dilution
# Assay type in all cases: cell-based
# [1] = tested on: Morganella morganii ATCC 8076h; conditions: ATCC8076H, Muller-Hinton agar, 37°C, 20 hours, read-out: MIC values against the standard strains
# Experimental: (§1) These MIC values were taken by employing a two-fold dilution method: that is, two-fold serial dilutions of each of the test compounds were made and dispersed in a Muller-Hinton agar medium; 2µl of the standard test strain which had the 10⁷ CFU(Colony Forming Unit) per ml was inoculated on the medium; and these were incubated at 37°C for 20 hours.
# [2] = tested on: Pseudomonas aeruginosa ATCC 10145; conditions: ATCC10145, Muller-Hinton agar, 37°C, 20 hours, read-out: MIC values against the standard strains
# Experimental: as §1
# [3] = tested on: Proteus vulgaris ATCC 6059; conditions: ATCC6059, Muller-Hinton agar, 37°C, 20 hours, read-out: MIC values against the standard strains
# Experimental: as §1
# [4] = tested on: Pseudomonas aeruginosa ATCC 27853; conditions: ATCC27853, Muller-Hinton agar, 37°C, 20 hours, read-out: MIC values against the standard strains
# Experimental: as §1
# [5] = tested on: Providencia rettgeri ATCC 9250; conditions: ATCC9250, Muller-Hinton agar, 37°C, 20 hours, read-out: MIC values against the standard strains
# Experimental: as §1
# [6] = tested on: Proteus mirabilis ATCC 25933; conditions: ATCC25933, Muller-Hinton agar, 37°C, 20 hours, read-out: MIC values against the standard strains
# Experimental: as §1
# [7] = tested on: Staphylococcus epidermidis ATCC 12228; conditions: ATCC12228, Muller-Hinton agar, 37°C, 20 hours, read-out: MIC values against the standard strains
# Experimental: as §1
# [8] = tested on: Salmonella typhimurium ATCC 14028; conditions: Salmonella enterica; Muller-Hinton agar; 37°C; 20 hours; read-out: MIC values against the standard strains
# Experimental: as §1
# [9] = tested on: Klebsiella pneumoniae ATCC 10031; conditions: ATCC10031, Muller-Hinton agar, 37°C, 20 hours, read-out: MIC values against the standard strains
# Experimental: as §1
# [10] = tested on: Shigella flexneri ATCC 11836; conditions: ATCC11836, Muller-Hinton agar, 37°C, 20 hours, read-out: MIC values against the standard strains
# Experimental: as §1
# [11] = tested on: Staphylococcus aureus ATCC 10537; conditions: ATCC10537, Muller-Hinton agar, 37°C, 20 hours, read-out: MIC values against the standard strains
# Experimental: as §1
# [12] = tested on: Micrococcus luteus ATCC 9341; conditions: ATCC9341, Muller-Hinton agar, 37°C, 20 hours, read-out: MIC values against the standard strains
# Experimental: as §1
# [13] = tested on: Staphylococcus aureus ATCC 6538p; conditions: ATCC6538P, Muller-Hinton agar, 37°C, 20 hours, read-out: MIC values against the standard strains
# Experimental: as §1
# [14] = tested on: Serratia marcescens ATCC 27117; conditions: ATCC27117, Muller-Hinton agar, 37°C, 20 hours, read-out: MIC values against the standard strains
# Experimental: as §1
# [15] = tested on: Escherichia coli ATCC 25922; conditions: ATCC25922, Muller-Hinton agar, 37°C, 20 hours, read-out: MIC values against the standard strains
# Experimental: as §1
# [16] = tested on: Enterobacter aerogenes ATCC 29751; conditions: Klebsiella aerogenes, ATCC29751; Muller-Hinton agar; 37°C; 20 hours; read-out: MIC values against the standard strains
# Experimental: as §1
# [17] = tested on: Bacillus cereus ATCC 11778; conditions: ATCC11778, Muller-Hinton agar, 37°C, 20 hours, read-out: MIC values against the standard strains
# Experimental: as §1
# [18] = tested on: Streptococcus faecalis ATCC 29212; conditions: Enterococcus faecalis, ATCC29212; Muller-Hinton agar; 37°C; 20 hours; read-out: MIC values against the standard strains
# Experimental: as §1
# [19] = tested on: Citrobacter freundii ATCC 8090; conditions: ATCC8090, Muller-Hinton agar, 37°C, 20 hours, read-out: MIC values against the standard strains
# Experimental: as §1
# [20] = tested on: Pseudomonas aeruginosa ATCC 25619; conditions: ATCC25619, Muller-Hinton agar, 37°C, 20 hours, read-out: MIC values against the standard strains
# Experimental: as §1
# [21] = tested on: Bacillus megaterium ATCC 9885; conditions: Priestia megaterium, ATCC9885; Muller-Hinton agar; 37°C; 20 hours; read-out: MIC values against the standard strains
# Experimental: as §1
# [22] = tested on: Escherichia coli ATCC 10536; conditions: ATCC10536, Muller-Hinton agar, 37°C, 20 hours, read-out: MIC values against the standard strains
# Experimental: as §1
# [23] = tested on: Shigella sonnei ATCC 11060; conditions: ATCC11060, Muller-Hinton agar, 37°C, 20 hours, read-out: MIC values against the standard strains
# Experimental: as §1
# [24] = tested on: Enterobacter cloacae ATCC 27508; conditions: ATCC27508, Muller-Hinton agar, 37°C, 20 hours, read-out: MIC values against the standard strains
# Experimental: as §1
# [25] = tested on: Acinetobacter calcoaceticus ATCC 15473; conditions: ATCC15473, Muller-Hinton agar, 37°C, 20 hours, read-out: MIC values against the standard strains
# Experimental: as §1
SMILES,MIC [1] [µg/mL],MIC [2] [µg/mL],MIC [3] [µg/mL],MIC [4] [µg/mL],MIC [5] [µg/mL],MIC [6] [µg/mL],MIC [7] [µg/mL],MIC [8] [µg/mL],MIC [9] [µg/mL],MIC [10] [µg/mL],MIC [11] [µg/mL],MIC [12] [µg/mL],MIC [13] [µg/mL],MIC [14] [µg/mL],MIC [15] [µg/mL],MIC [16] [µg/mL],MIC [17] [µg/mL],MIC [18] [µg/mL],MIC [19] [µg/mL],MIC [20] [µg/mL],other results
"CCO/N=C(\C(=O)N[C@@H]1C(=O)N2C(C(=O)[O-])=C(CSc3nc(N)c(C(=O)O)c[n+]3C)CS[C@H]12)c1csc(N)n1 [Example 25, 7-[(Z)-2-(2-aminothiazol-4-yl)-2-(ethoxyimino)acetamido]-3-(4-amino-5-carboxy-1-methylpyrimidinium-2-yl)thiomethyl-3-cephem-4-carboxylate]",≤ 0.008,32,0.25,32,≤ 0.008,0.25,0.5,0.13,0.016,0.016,0.5,0.063,1,0.5,0.031,1,64,> 128,0.063,2,MIC [21]: 0.25 µg/mL; MIC [22]: 0.031 µg/mL; MIC [23]: 0.063 µg/mL; MIC [24]: ≤ 0.008 µg/mL; MIC [25]: 32 µg/mL
"CCO/N=C(\C(=O)N[C@@H]1C(=O)N2C(C(=O)[O-])=C(CSc3nc(N)c4ccccc4[n+]3C)CS[C@H]12)c1csc(N)n1 [Example 29, 7-[(Z)-2-(2-aminothiazol-4-yl)-2-(ethoxyimino)acetamido]-3-(4-amino-1-methylbenzo-[5,6,e]pyrimidinium-2-yl)thiomethyl-3-cephem-4-carboxylate]",≤ 0.008,16,0.5,16,≤ 0.008,0.5,0.031,0.5,≤ 0.008,0.063,0.13,0.016,0.13,0.5,0.13,0.25,16,16,0.13,4,MIC [21]: 0.063 µg/mL; MIC [22]: 0.13 µg/mL; MIC [23]: 0.25 µg/mL; MIC [24]: ≤ 0.008 µg/mL; MIC [25]: 16 µg/mL
"CCO/N=C(\C(=O)N[C@@H]1C(=O)N2C(C(=O)[O-])=C(CSc3nc(N)c4cccnc4[n+]3C)CS[C@H]12)c1csc(N)n1 [Example 31, 7-[(Z)-2-(2-aminothiazol-4-yl)-2-(ethoxyimino)acetamido]-3-(6-amino-3-methylpyrido[5,6,e]pyrimidinium-4-yl)thiomethyl-3-cephem-4-carboxylate]",0.016,32,1,16,0.016,1,0.063,1,≤ 0.008,0.13,0.13,0.031,0.13,1,0.13,0.5,32,16,0.25,4,MIC [21]: 0.13 µg/mL; MIC [22]: 0.25 µg/mL; MIC [23]: 0.25 µg/mL; MIC [24]: 0.016 µg/mL; MIC [25]: 16 µg/mL
"C[n+]1c(SCC2=C(C(=O)[O-])N3C(=O)[C@@H](NC(=O)/C(=N\OC(C)(C)C(=O)O)c4csc(N)n4)[C@H]3SC2)nc(N)c2ccoc21 [Example 32, 7-[(Z)-2-(2-aminothiazol-4-yl)-2-(carboxyprop-2-oxyimino)acetamido]-3-(4-amino-1-methylfuro[5,6,e]pyrimidinium-2-yl-)thiomethyl-3-cephem-4-carboxylate]",≤ 0.008,4,0.13,2,≤ 0.008,0.13,2,0.25,0.016,0.031,2,0.25,4,0.25,0.063,2,128,> 128,0.13,1,MIC [21]: 0.13 µg/mL; MIC [22]: 0.063 µg/mL; MIC [23]: 0.13 µg/mL; MIC [24]: 0.016 µg/mL; MIC [25]: 8 µg/mL
"CCO/N=C(\C(=O)N[C@@H]1C(=O)N2C(C(=O)[O-])=C(CSc3nc(N)c4ccoc4[n+]3C)CS[C@H]12)c1csc(N)n1 [Example 33, 7-[(Z)-2-(2-aminothiazol-4-yl)-2-(ethoxyimino)acetamido]-3-(4-amino-1-methylfuro-[5,6,e]pyrimidinium-2-yl)thiomethyl-3-cephem-4-carboxylate]",≤ 0.008,16,0.25,8,≤ 0.008,0.5,0.13,0.5,≤ 0.008,0.063,0.25,0.031,0.25,0.5,0.063,0.5,32,8,0.063,0.5,MIC [21]: 0.063 µg/mL; MIC [22]: 0.063 µg/mL; MIC [23]: 0.13 µg/mL; MIC [24]: ≤ 0.008 µg/mL; MIC [25]: 8 µg/mL
"CNc1cc(N)nc(SCC2=C(C(=O)[O-])N3C(=O)[C@@H](NC(=O)/C(=N\OC(C)(C)C(=O)O)c4csc(N)n4)[C@H]3SC2)[n+]1C [Example 35, 7-[(Z)-2-(2-aminothiazol-4-yl)-2-(carboxyprop-2-oxyimino)acetamido]-3-(4-amino-6-methylamino-1-methylpyrimidinium-2-yl)thiomethyl-3-cephem-4-carboxylate]",≤ 0.008,2,0.063,2,≤ 0.008,0.031,2,0.13,0.063,0.031,2,0.25,4,0.13,0.063,1,128,> 128,0.063,2,MIC [21]: 0.5 µg/mL; MIC [22]: 0.063 µg/mL; MIC [23]: 0.063 µg/mL; MIC [24]: ≤ 0.008 µg/mL; MIC [25]: 8 µg/mL
